Results reported in US20090048182A1, “Cosmetic Use of at Least One Natural Ac-N-Ser-Asp-Lys-Pro-Tetrapeptide or One of Its Analogues as Agent for Slowing Down Loss of Hair and/or Stimulating Hair Growth” (CENTRE NATIONAL DE LA RECHERCHE SCIENTIFQUE (CNRS, priority 2005, published 2009).
Residues, ends and D or L forms follow the SMILES beside them.

Key:
laminin 5 = assay: Immunolabelling of laminin 5 in isolated hairs; type: cell-based, human
Procedure: Study of the stimulating activity of tetrapeptide AcSDKP on the growth of isolated hairs maintained in a state of ex vivo survival. This study was conducted on 66 human hair explants obtained from scalp-plasty. Hairs comprised of hair follicles were isolated by micro dissection and individually placed in wells (96-well culture plate) and maintained in survival for 15 days under conventional tissue culturing conditions (37° C., 5% CO2) in Williams medium. Tetrapeptide AcSDKP added to the culture medium was tested at three concentrations: 10^−4 M, 10^−7 M and 10^−10 M. Minoxidil® (2,4-diamino 6-piperidinopyrimidine 3-oxide) at a concentration of 10^−5 M was used as a positive control. Culture mediums containing the compounds to be tested were renewed every three days. On D8 and D15 of treatment, six hairs from each batch (untreated control, Minoxidil®, +AcSDKP 10^−4 M, +AcSDKP 10^−7 M, +AcSDKP 10^−10 M) were removed and prepared for histological study. Three explants from each batch were fixed in ordinary Bouin and the three other hairs were frozen and stored at −80° C. In addition to measurements of the length of each hair, the general morphology of each hair was analysed and the expression of laminin 5 and collagen IV, two constituents of the basal membrane, was evaluated. […]

keratin 19 (CK19) = assay: Immunolabeling of keratin 19 (CK19), epithelial stem cell marker, on frozen cuts of isolated hairs; type: cell-based, human
Procedure: (§1) Study of the stimulating activity of tetrapeptide AcSDKP on the growth of isolated hairs maintained in a state of ex vivo survival. This study was conducted on 66 human hair explants obtained from scalp-plasty.
(§2) Hairs comprised of hair follicles were isolated by micro dissection and individually placed in wells (96-well culture plate) and maintained in survival for 15 days under conventional tissue culturing conditions (37° C., 5% CO2) in Williams medium.
(§3) Tetrapeptide AcSDKP added to the culture medium was tested at three concentrations: 10^−4 M, 10^−7 M and 10^−10 M. Minoxidil® (2,4-diamino 6-piperidinopyrimidine 3-oxide) at a concentration of 10^−5 M was used as a positive control.
(§4) Culture mediums containing the compounds to be tested were renewed every three days.
(§5) On D8 and D15 of treatment, six hairs from each batch (untreated control, Minoxidil®, +AcSDKP 10^−4 M, +AcSDKP 10^−7 M, +AcSDKP 10^−10 M) were removed and prepared for histological study.
(§6) Three explants from each batch were fixed in ordinary Bouin and the three other hairs were frozen and stored at −80° C.
Immunolabeling of keratin 19 (CK19) was carried out on frozen cuts of control hairs and hairs treated with AcSDKP or Minoxidil® in order to evaluate the proportion of undifferentiated primitive cells (or even stem cells) present in the external epithelial sheaths of the hair follicles. […]

[1] = test system: isolated human hair explants (hair follicles); assay: Growth (length) of isolated human hairs maintained in ex vivo survival; type: cell-based
Procedure: as §1, §2, §3, §4
Hairs were photographed using a microscope and a CCD camera coupled to acquisition software and archiving.
Each hair was measured on D0, D3, D6, D8, D10, D13 and D15 using a LEICA IM1000 measurement module to give measurements in μm.
Each hair was photographed and its length evaluated using software giving values in μm.

[2] = test system: neo-keratinocytes / epithelial sheaths of isolated hairs; assay: General morphology of histological cuts of isolated hairs (Masson Trichromium): neo-keratinocytes, epithelial sheaths; type: cell-based, human
Procedure: as §1, §2, §3, §4, §5, §6
(§7) In addition to measurements of the length of each hair, the general morphology of each hair was analysed and the expression of laminin 5 and collagen IV, two constituents of the basal membrane, was evaluated. Moreover, immunolabeling with anti-Ki67 antibodies (nuclear protein expressed in growing cells) was carried out of cells in mitosis in order to establish the mitotic index of follicle structures.
Analysis of the general morphology of histological cuts stained with Masson Trichromium focusing on the area between the opening of the sebaceous glands and the hair bulb.
Hairs cultured on D0 naturally undergo changes during survival as is observed after an in vivo graft. The restructuring effect of AcSDKP was visualised through the appearance of neo-keratinocytes along the conjunctival sheath which migrate from the bulge and to a lesser extent from the bulb, two regions where stem cells are found. […] This effect leads to clear appearance of neo-keratinocytes along the length of the hair, from the epidermis to the bulb. The structure of the neo-keratinocytes formed in this way is uniform and stratified. It varies as a function of treatment time and AcSDKP concentration. The clearest activity was found on D15 of treatment with AcSDKP at 10^−10 M.

collagen IV = assay: Immunolabeling of basal membrane collagen (type IV) on frozen cuts of isolated hairs; type: cell-based, human
Procedure: as §1, §2, §3, §4, §5, §6, §7
Immunolabeling of type IV collagen was carried out on frozen cuts of the control hairs and hairs treated with AcSDKP or Minoxidil® in order to quantify this constituent of the basal membrane which separates the dermal compartment from the epithelial compartment.

[3] = test system: cells in mitosis (Ki67) in the epithelial sheath of hair; assay: Cell proliferation: anti-Ki67 immunolabeling of cells in mitosis along the epithelial sheath of isolated hairs; type: cell-based, human
Procedure: as §1, §2, §3, §4, §5, §6, §7
This study was conducted on cuts of frozen hairs.

CC(=O)N[C@@H](CO)C(=O)N[C@@H](CC(=O)O)C(=O)N[C@@H](CCCCN)C(=O)N1CCC[C@H]1C(=O)O [AcSDKP, CH3CO-Ser-Asp-Lys-Pro-OH] (Ac-SDKP-OH)
Laminin 5 increase in the median zone of hair (laminin 5; D8, AcSDKP 10^−10 M): considerably more marked
Expression of laminin 5 (laminin 5; D15, AcSDKP 10^−7 M): higher
Increase in CK19 levels (keratin 19 (CK19); D8 and D15, AcSDKP 10^−10 M): maximal
Expression of CK19 compared to control hair and Minoxidil-treated hair (keratin 19 (CK19); hair kept in survival in presence of the tetrapeptide): significantly greater
Hair growth (length of hair) ([1]; 10^−10 M in culture medium, D15 of treatment): significantly stimulates hair growth
Hair growth (length of hair shafts) ([1]; higher concentrations (10^−4 M, 10^−7 M), D15): no significant difference
Restructuring of the epithelial sheaths ([2]; AcSDKP in the culture medium, as of D8 of treatment): leads to restructuring of the epithelial sheaths
Adherence of epithelial sheaths to collagen ([2]; D8, AcSDKP 10^−4 M): more or less detached
Neo-keratinocyte sites ([2]; D8, AcSDKP 10^−4 M): absent
Adherence of epithelium to the underlying collagen ([2]; D8, the two active concentrations (10^−7 M and 10^−10 M)): adheres fully
Neo-keratinocyte structure thickness ([2]; D15, AcSDKP 10^−4 M, 10^−7 M and especially 10^−10 M): increasingly thicker
Increase in collagen IV levels (collagen IV; D8 and D15, AcSDKP 10^−10 M): all the more marked
Collagen IV expression in the bulb and median section of hair (collagen IV; as of D8, AcSDKP at the three concentrations tested): very clear increase in collagen IV
Increase in number of cells in mitosis compared to control hair ([3]; 10^−10 M, D8 of treatment): +300%
Average number of cells in mitosis per mm of hair ([3]; AcSDKP 10^−7 M, D8): 34 per mm of hair
Number of cells in mitosis in treated hair compared to control hair ([3]; three concentrations tested (10^−4 M, 10^−7 M, 10^−10 M)): significantly increases the number of cells in mitosis

Nc1cc(N2CCCCC2)nc(N)[n+]1[O-] [Minoxidil ®, 2,4-diamino 6-piperidinopyrimidine 3-oxide, reference compound]
Adherence of epithelial sheaths to collagen ([2]; D8, Minoxidil): more or less detached
Neo-keratinocyte sites ([2]; D8, Minoxidil 10 μM): absent
Neo-keratinocyte structure compared to untreated hair ([2]; D15, Minoxidil 10^−5 M): slightly more structured
Collagen IV expression (collagen IV; hair treated with Minoxidil): often less evident
